The text below walks through data of ChEMBL document CHEMBL5724914, “Linking interpersonal differences in gut microbiota composition and drug biotransformation activity” (2024).

The nature of data set [1]: The drug is tested on Z-013 corresponding to rabbit gut metagenome with ENA study accession number: PRJEB37062 and ENA sample accession number: ERS12561813 for biotransformation under anaerobic condition. The drug concentrations were measured over 9 timepoints collected between 0 and 24 hours of incubation by liquid-chromatography-coupled mass spectrometry (LC–MS). Particulars: 2 µM.

Data set [2] in a line: The drug is tested on Z-011 corresponding to mouse gut metagenome with ENA study accession number: PRJEB37062 and ENA sample accession number: ERS12561811 for biotransformation under anaerobic condition. The drug concentrations were measured over 9 timepoints collected between 0 and 24 hours of incubation by liquid-chromatography-coupled mass spectrometry (LC–MS). The following applies: 2 µM.

The nature of data set [3]: The drug is tested on Z-006 corresponding to mouse gut metagenome with ENA study accession number: PRJEB37062 and ENA sample accession number: ERS12561806 for biotransformation under anaerobic condition. The drug concentrations were measured over 9 timepoints collected between 0 and 24 hours of incubation by liquid-chromatography-coupled mass spectrometry (LC–MS). Particulars: 2 µM.

Data set [4] is described as follows: The drug is tested on WLS-370 corresponding to human gut metagenome with ENA study accession number: PRJEB37062 and ENA sample accession number: ERS12561793 for biotransformation under anaerobic condition. The drug concentrations were measured over 9 timepoints collected between 0 and 24 hours of incubation by liquid-chromatography-coupled mass spectrometry (LC–MS). The following applies: 2 µM.

Data set [5] is described as follows: The drug is tested on WLS-350 corresponding to human gut metagenome with ENA study accession number: PRJEB37062 and ENA sample accession number: ERS12561789 for biotransformation under anaerobic condition. The drug concentrations were measured over 9 timepoints collected between 0 and 24 hours of incubation by liquid-chromatography-coupled mass spectrometry (LC–MS). The following applies: 2 µM.

Data set [6] in a line: The drug is tested on WLS-082 corresponding to human gut metagenome with ENA study accession number: PRJEB37062 and ENA sample accession number: ERS12561751 for biotransformation under anaerobic condition. The drug concentrations were measured over 9 timepoints collected between 0 and 24 hours of incubation by liquid-chromatography-coupled mass spectrometry (LC–MS). The following applies: 2 µM.

Data set [7] in a line: The drug is tested on WLS-052 corresponding to human gut metagenome with ENA study accession number: PRJEB37062 and ENA sample accession number: ERS12561747 for biotransformation under anaerobic condition. The drug concentrations were measured over 9 timepoints collected between 0 and 24 hours of incubation by liquid-chromatography-coupled mass spectrometry (LC–MS). Particulars: 2 µM.

Data set [8] is described as follows: The drug is tested on WLS-039 corresponding to human gut metagenome with ENA study accession number: PRJEB37062 and ENA sample accession number: ERS12561746 for biotransformation under anaerobic condition. The drug concentrations were measured over 9 timepoints collected between 0 and 24 hours of incubation by liquid-chromatography-coupled mass spectrometry (LC–MS). The following applies: 2 µM.

For data set [9] the following is noted: human gut metagenome, 24 h, 2 µM.
For data set [10] the following is noted: human gut metagenome, 24 h, 2 µM. This is another data set of the same source.
For data set [11] the following is noted: human gut metagenome, 24 h, 2 µM. The source holds these as a separate data set.
The conditions of data set [12]: human gut metagenome, 24 h, 2 µM. The source holds these as a separate data set.
The conditions of data set [13]: human gut metagenome, 24 h, 2 µM. The source holds these as a separate data set.
The conditions of data set [14]: human gut metagenome, 24 h, 2 µM. This is another data set of the same source.
For data set [15] the following is noted: human gut metagenome, 24 h, 2 µM. This is another data set of the same source.
The conditions of data set [16]: human gut metagenome, 24 h, 2 µM. The source holds these as a separate data set.
The conditions of data set [17]: human gut metagenome, 24 h, 2 µM. This is another data set of the same source.
Data set [18] can be described thus: The drug is tested on WLS-010 corresponding to human gut metagenome with ENA study accession number: PRJEB37062 and ENA sample accession number: ERS12561743 for biotransformation under anaerobic condition. The drug concentrations were measured over 9 timepoints collected between 0 and 24 hours of incubation by liquid-chromatography-coupled mass spectrometry (LC–MS). The following applies: 2 µM.

The nature of data set [19]: The drug is tested on WLS-007 corresponding to human gut metagenome with ENA study accession number: PRJEB37062 and ENA sample accession number: ERS12561742 for biotransformation under anaerobic condition. The drug concentrations were measured over 9 timepoints collected between 0 and 24 hours of incubation by liquid-chromatography-coupled mass spectrometry (LC–MS). Particulars: 2 µM.
Further: call rule not given here.

With `COc1cc(NC(C)CCCN)c2ncccc2c1.O=P(O)(O)O.O=P(O)(O)O` (configuration not stated) [PRIMAQUINE PHOSPHATE], the “Bacterial Biotransformation” value in data set [1] is recorded as “Compound NOT metabolized”; in [2] it was “Compound NOT metabolized”; in [3] it was “Compound NOT metabolized”; in data set [4], “Compound NOT metabolized”; in data set [5] it was “Compound NOT metabolized”; in [6], “Compound metabolized”. The “Bacterial Biotransformation” value in data set [7] is “Compound NOT metabolized”; in [8], “Compound metabolized”; in data set [9], “Compound NOT metabolized”; in [10] it was “Compound metabolized”; in [11], “Compound NOT metabolized”; in data set [12] it was “Compound NOT metabolized”. Also, the “Bacterial Biotransformation” value was “Compound metabolized” in data set [13]; “Compound metabolized” in data set [14]; “Compound metabolized” in data set [15]; “Compound NOT metabolized” in data set [16]; “Compound NOT metabolized” in data set [17].

For `COC1=C(OC)C(=O)C(CCCCCCCCCCO)=C(C)C1=O` [IDEBENONE], the “Bacterial Biotransformation” value in data set [1], in data set [2], in data set [3], in [4], in [5] and in data set [6] was “Compound metabolized” throughout. Besides, the “Bacterial Biotransformation” value in data set [7], in data set [8], in [18], in data set [19], in [10] and in data set [11] was “Compound metabolized” each time. The “Bacterial Biotransformation” value is given as “Compound NOT metabolized” in data set [12]; “Compound metabolized” in [13]; “Compound metabolized” in [15]; “Compound NOT metabolized” in [16]; “Compound metabolized” in data set [17].

In the case of `CC(=O)OCC(=O)NCCCOc1cccc(CN2CCCCC2)c1` [ROXATIDINE ACETATE], the “Bacterial Biotransformation” value is “Compound NOT metabolized” in [1]; “Compound metabolized” in data set [2]; “Compound metabolized” in data set [3]; “Compound metabolized” in [4]; “Compound metabolized” in data set [5]; “Compound metabolized” in data set [6]. In addition, the “Bacterial Biotransformation” value in [7], in [8], in data set [18], in data set [19], in data set [9] and in [10] was “Compound metabolized” each time. Further, the “Bacterial Biotransformation” value was “Compound metabolized” in data set [11]; “Compound NOT metabolized” in data set [12]; “Compound metabolized” in data set [13]; “Compound metabolized” in data set [14]; “Compound metabolized” in [16]; “Compound metabolized” in [17].
